Data taken from patent US7410995B1, “N-linked sulfonamide of heterocyclic thioesters for vision and memory disorders” (GPI Nil Holdings Inc., priority 1998, dated 2008).
“Also recorded” adds a separate entry of the source. One block for each molecule: values may come before it.

What was measured:
[1] = tested on: retinal ganglion cell axons; experiment: Protection of retinal ganglion cell axons from degeneration following optic nerve transection (Table V); assay type: in vivo; conditions: ± SEM
Excerpt: Efficacy of representative compounds from different immunophilin ligand series in protecting retinal ganglion cell axons from degeneration following optic nerve transection is set forth in Table V.

[2] = molecular target: FKBP12 (Homo sapiens, UniProt P62942); experiment: Ki test procedure: inhibition of peptidyl-prolyl isomerase (rotamase) activity, chymotrypsin-coupled assay; assay type: biochemical; conditions: Table V comments; read-out: Ki rotomase
Sequence of FKBP12 (P62942 whole entry, species assumed): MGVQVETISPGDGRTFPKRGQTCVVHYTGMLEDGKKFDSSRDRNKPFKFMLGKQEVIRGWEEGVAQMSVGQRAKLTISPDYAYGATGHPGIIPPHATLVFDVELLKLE
Excerpt: The inhibition of the prolyl peptidyl cis-trans isomerase activity of FKBP may be measured as an indicator of this affinity. Inhibition of the peptidyl-prolyl isomerase (rotamase) activity of the compounds used in the inventive methods and pharmaceutical compositions can be evaluated by known methods described in the literature (Harding et al., Nature, 1989, 341:758-760; Holt et al. J. Am. Chem. Soc., 115:9923-9938). […] The inhibition of this reaction caused by the addition of different concentrations of inhibitor is determined, and the data is analyzed as a change in first-order rate constant as a function of inhibitor concentration to yield the apparent Ki values. […] The reaction is initiated by the addition of […] of substrate (succinyl-[…]-nitroanilide, 5 mg/mL in 2.35 mM LiCl in trifluoroethanol). The absorbance at 390 nm versus time is monitored for 90 seconds using a spectrophotometer and the rate constants are determined from the absorbance versus time data files.

[3] = tested on: retinal ganglion cells and optic nerve axons; experiment: In vivo retinal ganglion cell and optic nerve axon tests after optic nerve transection (Example 6, Table 1); design: species or system Sprague Dawley rats; conditions: for Proximal optic nerve myelin basic protein Density: SEM, % areal coverage of optic nerve cross section; for increased ON axon density: adjusted for optic nerve diameter; for Distal optic nerve stump shrinkage: cross sectional area compared to sham control; for Distal optic nerve myelin basic protein Density: cross sectional area multiplied by myelin density
Excerpt: All eyes and optic nerves stumps were removed.

[4] = tested on: retinal ganglion cells; experiment: Retinal ganglion cell survival and axonal dying back following optic nerve transection (Example 17); assay type: in vivo, Sprague Dawley rats; conditions: GPI-1046 10 mg/kg/day s.c. for 28 days
Excerpt: Transection of the mammalian optic nerve results in a brief period of abortive regeneration, but the majority of axotomized neurons die and the axons from many persisting ganglion cells die back beyond the optic nerve head.

[5] = tested on: retinal ganglion cells; experiment: Retinal ischemia: retinal ganglion cell, optic nerve axon and myelin degeneration (FIGS. 1, 2); assay type: in vivo, rats
Excerpt: Retinal ganglion cells were retrogradely labeled in adult rats by bilateral injection of fluorogold in their lateral geniculate nuclei. Labeled ganglion cells in the normal rat retina appear as white profiles against the dark background (FIG. 1A). Complete retinal ischemia was produced by infusing normal saline solution into the retinal vitreous cavity of each eye until the intraocular pressure exceeded arterial blood pressure. 28 days after the ischemic episode extensive degeneration of retinal ganglion cell was evidenced by massive reduction in the density of fluorogold labeled cells (FIG. 1B). […] FIG. 2. […] Optic nerves from vehicle treated cases examined 28 days after a 1 hour retinal ischemic episode are characterized by a decreased density of optic nerve axons and the appearance of numerous degenerating myelin figures (bright white filled circles). […] FIG. 3. […] Few spared fluorogold pre labeled ganglion cells are present in vehicle treated cases (large white figures) among a population of small microglia that digest the debris of the degenerating cells and take up the fluorogold label (FIG. 3A). […] FIG. 4. […] 90 days after transection few ganglion cell axons remain within the optic nerve (FIG. 4B), representing only 5.6% of the normal population. The loss of axons reflects both the death of retinal ganglion cells and the regression or “dying back” of the axons of ˜70% of the small surviving ganglion cell population into the retina itself (Table 1). […] FIG. 5. […] FIG. 6. […] 90 days after transection extensive degeneration of myelin is evident in vehicle treated cases, characterized by the loss of fascicular organization and the appearance of numerous large dense degenerating myelin figures (FIG. 6B, upper right). […] FIG. 7. FKBP-12 immunohistochemistry labels oligodendroglia (large dark cells with fibrous processes), the cells which produce myelin, located between the fascicles of optic nerve fibers, and also some optic nerve axons. FIG. 8. […]

[6] = tested on: retina; experiment: Streptozotocin induced diabetes: retinal neovascularization and neuron loss (FIG. 9); assay type: in vivo
[7] = Peripheral sensory neuropathy in streptozotocin-induced diabetic rat, hot plate and tail flick (Example 18); assay type: in vivo, Wistar rats; conditions: lesioned animals treated for 6 weeks at 10 mg/kg s.c.
Description: The procedure involved using Male Wistar rats which were given a single injection of streptozotocin (65 mg/kg i.v.). Blood glucose levels were determined weekly for the first three weeks and on the last week of the experiment. Animals were evaluated weekly for signs of sensory neuropathy using the conventional hot plate and tail flick apparatus test procedures.

[8] = Morris watermaze spatial learning and memory in aged rodents (Example 19); assay type: in vivo, C57BL/6N-Nia mice; conditions: aged impaired mice, daily 10 mg/kg GPI-1046, retention testing after 3 weeks of dosing; listed as GPT-1046, 10 mg/kg
Excerpt: In all of these tasks, a proportion of aged rats or mice perform as well as the vast majority of young control animals, while other animals display severe impairments in memory function compared to young animals. […] Specifically, rodent spatial learning and memory decline during aging has been accepted by many investigators as an intriguing correlative animal model of human senile dementia. Cholinergic function in the hippocampus has been extensively studied as a component of spatial learning in rodents, and declining hippocampal cholinergic function has been noted in parallel with the development of learning and memory impairments. […] Also, reports on age-related deficits of hippocampal long-term potentiation (LTP)-induction, a reduction in theta rhythm frequency, a loss of experience-dependent plasticity of hippocampal place-units, and reductions in hippocampal protein kinase C are in keeping with the concept that no single underlying pathology can be identified as the cause of age-related behavioral impairment in rodents. However, the various experimental therapeutic approaches that have been undertaken to improve memory function in aged rodents have been somewhat slanted towards the cholinergic hypothesis. The Morris watermaze is widely used for assessing spatial memory formation and retention in experimental animals. […]

[9] = Clearance (Table V comments); assay type: in vitro ADME

Molecule: O=C(SCCCc1ccccc1)[C@@H]1CCCN1S(=O)(=O)Cc1ccccc1 [C]
RT 97 RGC axon density 14 days after ON transection [1]: 60.4% ± 3.1% SEM

Molecule: CCC(C)(C)C(=O)C(=O)N1CCC[C@H]1C(=O)O [L]
Ki [2]: > 7740 nM
RT 97 RGC axon density 14 days after ON transection [1]: 7.8% ± 3.0% SEM

Molecule: CCC(C)(C)C(=O)C(=O)N1CCC[C@H]1C(=O)OCCCc1cccnc1 [GPI 1046, 3-(3-pyridyl)-1-propyl (2s)-1-(3,3-dimethyl-1,2-dioxopentyl)-2-pyrrolidinecarboxylate]
quantitative recovery in myelin density ([3]; GPI 1046 for the first 14 days after transection, proximal stump): 1.60
myelin levels, distal stump ([3]; GPI 1046 through the first 28 days after transection): ~99 % of normal levels
Proximal optic nerve myelin basic protein Density ([3]; ONT/14 days GPI 1046): did not alter the pattern of myelin degeneration
increased ON axon density ([3]; ONT/14 days GPI 1046): 1.5 X
Distal optic nerve stump shrinkage ([3]; ONT/14 days GPI 1046): did not protect against shrinkage of the distal stump
Distal optic nerve myelin basic protein Density ([3]; ONT/14 days GPI 1046): slightly increase the density of myelin
Proximal optic nerve myelin basic protein Density ([3]; ONT/28 days GPI 1046): prevents myelin degeneration in the proximal stump
increased ON axon density ([3]; ONT/28 days GPI 1046): 5.0 X
Distal optic nerve stump shrinkage ([3]; ONT/28 days GPI 1046): prevented cross sectional shrinkage of the distal stump
Distal optic nerve myelin basic protein Density ([3]; ONT/28 days GPI 1046): prevents myelin degeneration in the distal stump
axons of protected neurons in the proximal stump (RT97) ([4]; 90 days after transection): preserved the axons of virtually all protected neurons
ganglion cell population spared ([4]; sacrificed 90 days after transection): 25%
protection of retinal ganglion cells (fluorogold labeled) against degeneration ([5]; GPI 1046 10 mg/kg s.c. 1 hour prior to ischemia and 10 mg/kg/day for next four days, 28 days after ischemia): noticeable protection of a large proportion of the vulnerable ganglion cell population; also recorded: protects retinal ganglion cells against degeneration
density of degenerating myelin figures ([5]; same retinal ischemia cases, 28 days after 1 hour ischemic episode): dramatically decreased
degeneration of optic nerve axons ([5]; same retinal ischemia cases, 28 days after 1 hour ischemic episode, toluidine blue staining): protected the majority of optic nerve axons from degeneration; also recorded: prevents degeneration of optic nerve axons and myelin
loss of neurons in the INL and GCL ([6]; 28 day GPI 1046 treatment beginning 8 weeks after onset of diabetes, compared to streptozotocin/vehicle): protects neurons in the inner nuclear layer (INL) and ganglion cell layer (GCL) from degeneration
neovascularization in the retina (PR, ONL, OPL, INL) ([6]; 28 day GPI 1046 treatment beginning 8 weeks after onset of streptozotocin induced diabetes): reduced neovascularization; also recorded: decreases the extent of neovascularization
latency, hot plate and tail flick [7]: improvement in latency
spatial memory performance (swim distance), retention testing [8]: no longer any statistically significant difference

Molecule: CCC(C)(C)C(=O)C(=O)N1CCCC[C@H]1C(N)=O [H]
RT 97 RGC axon density 14 days after ON transection [1]: 30.3% ± 8.0% SEM

Clearance [9]: 41.8 µL/min
Molecule: CCC(C)(C)C(=O)C(=O)N1CCCCC1C(=O)OC(CCc1ccccc1)CCc1ccccc1 (centres unmarked) [E]

Molecule: CCC(C)(C)C(=O)C(=O)N1CCS[C@@H]1C(=O)OCCCc1cccnc1 [F]
RT 97 RGC axon density 14 days after ON transection [1]: 55.1% ± 5.9% SEM

Ki [2]: 149 nM
Molecule: O=C(SCCCc1ccccc1)[C@@H]1CCCN1C(=O)NC12CCC(CC1)C2 [B]
RT 97 RGC axon density 14 days after ON transection [1]: 100.0% ± 5.2% SEM

Molecule: CCC(C)(C)C(=O)C(=O)N1CCCC[C@H]1C(=O)O [G]
RT 97 RGC axon density 14 days after ON transection [1]: 34.0% ± 4.8% SEM

Ki [2]: 7.5 nM
Clearance [9]: 3.5 µL/min
Molecule: 3-(3-pyridyl)-1-propyl (2s)-1-(3,3-dimethyl-1,2-dioxopentyl)-2-pyrrolidinecarboxylate [GPI 1046]
RT 97 RGC axon density 14 days after ON transection [1]: 60.5% ± 3.9 SEM

Molecule: O=C(OCCCc1cccnc1)[C@@H]1CCCN1C(=S)NC1CCCCC1 [I]
RT 97 RGC axon density 14 days after ON transection [1]: 23.8% ± 5.3% SEM

Molecule: CCC(C)(C)C(=O)C(=O)N1CCC[C@H]1C(=O)CCCCc1cccnc1 [J]
RT 97 RGC axon density 14 days after ON transection [1]: 15.8% ± 4.8% SEM

Molecule: CCC(C)(C)C(=O)C(=O)N1CCCC[C@H]1C(=O)SCCC(c1ccccc1)c1ccccc1 [Compound K]
RT 97 RGC axon density 14 days after ON transection [1]: 13.0% ± 4.2% SEM

Molecule: CCC(C)(C)C(=O)C(=O)N1CCC[C@H]1C(=O)SCCC(c1ccccc1)c1ccccc1 [M]
RT 97 RGC axon density 14 days after ON transection [1]: −6.3% ± 3.9% SEM
